In brackets after ≈: the same amount, converted by molar mass.
Columns and labels:
[1] = system: VRE (VanA), MMX 486; test: microbe, parasite or virus in culture; details: Enterococcus, read-out: MIC, VRE (VanA)
[2] = system: vancomycin-susceptible enterococci, ATCC 29212; test: organism not typed; details: read-out: MIC, VSE
[3] = system: vancomycin-resistant enterococci (VanB), ATCC 51299; test: microbe, parasite or virus in culture; details: Enterococcus, ATCC51299|VRE, read-out: MIC, VRE (VanB)
[4] = system: vancomycin-susceptible enterococci, ATCC 29212
[5] = system: vancomycin-resistant enterococci (VanB), ATCC 51299; details: teicoplanin susceptible
[6] = system: methicillin-resistant S. aureus, ATCC 43300
[7] = system: methicillin-susceptible S. aureus, ATOC 29213
[8] = system: VRE (VanA), MMX 486; details: vancomycin and teicoplanin resistant

Compound	MIC [1] [µg/mL]	MIC [2] [µg/mL]	MIC [3] [µg/mL]	MIC, VSE [4] [µg/mL]	MIC, VRE (VanB) [5] [µg/mL]	MIC, MRSA [6] [µg/mL]	MIC, MSSA [7] [µg/mL]	MIC, VRE (VanA) [8] [µg/mL]
CC(=O)NC[C@H]1CN(c2ccc(N3CCOCC3)c(F)c2)C(=O)O1 [Linezolid]	2 (≈ 5.93 µM)	2 (≈ 5.93 µM)	2 (≈ 5.93 µM)	–	–	–	–	–
CN[C@H](CC(C)C)C(=O)N[C@H]1C(=O)N[C@@H](CC(N)=O)C(=O)N[C@H]2C(=O)N[C@H]3C(=O)N[C@H](C(=O)N[C@H](C(=O)O)c4cc(O)cc(O)c4-c4cc3ccc4O)[C@H](O)c3ccc(c(Cl)c3)Oc3cc2cc(c3O[C@@H]2O[C@H](CO)[C@@H](O)[C@H](O)[C@H]2O[C@H]2C[C@](C)(N)[C@H](O)[C@H](C)O2)Oc2ccc(cc2Cl)[C@H]1O [Vancomycin]	–	–	–	2 (≈ 1.38 µM)	16 (≈ 11 µM)	1 (≈ 0.69 µM)	0.5 (≈ 0.345 µM)	>64
Teicoplanin	–	–	–	0.25	0.25	0.5	0.5	>64
teicoplanin A2-2	–	–	–	0.25	0.25	0.5	0.5	>64

Reference: publication PMC3800266 (Journal of the American Chemical Society, 2013)
